Laboratory results from the supplement of paper PMC9663587.

Experiments:
[1] = compound: T1, CC(=O)c1c(C)c2cnc(Nc3ccc(N4CCN(CCOCCOCCOCCNC(=O)COc5cccc6c5C(=O)N(C5CCC(=O)NC5=O)C6=O)CC4)cn3)nc2n(C2CCCC2)c1=O [BSJ-03-123]
[2] = compound: CC[C@@H]1C(=O)N(C)c2cnc(Nc3ccc(C(=O)N[C@H]4CC[C@H](N5CCN(CC6CC6)CC5)CC4)cc3OC)nc2N1C(C)C [Volasertib/BI6727]
[3] = compound: Cc1cc(Nc2ncc(Cl)c(Nc3ccccc3S(=O)(=O)C(C)C)n2)c(OC(C)C)cc1C1CCNCC1 [Ceritinib/LDK378]
[4] = compound: CC(C)n1nc(-c2ccc3oc(N)nc3c2)c2c(N)ncnc21 [INK128/MLN0128]
[5] = compound: T2, CCOc1cc2ncc(C#N)c(Nc3ccc(OCc4ccccn4)c(Cl)c3)c2cc1NC(=O)/C=C/CN(C)C [Neratinib/HKI272]
[6] = compound: COc1ccc2c(c1)[C@]1(C[C@H]1c1ccc3c(/C=C/c4ccc(CN5C[C@@H](C)O[C@@H](C)C5)cc4)n[nH]c3c1)C(=O)N2
[7] = compound: T3, CN(C)C(=O)c1cc2cnc(Nc3ccc(N4CCNCC4)cn3)nc2n1C1CCCC1 [LEE011/Ribociclib]
[8] = compound: O=C1NC(=O)[C@@H](c2cn3c4c(cccc24)CCC3)[C@@H]1c1c[nH]c2ccccc12 [Tivantinib/ARQ197]
[9] = compound: CC(=O)O[C@H]1C(=O)[C@@]2(C)[C@H]([C@H](OC(=O)c3ccccc3)[C@]3(O)C[C@H](OC(=O)[C@H](O)[C@@H](NC(=O)c4ccccc4)c4ccccc4)C(C)=C1C3(C)C)[C@]1(OC(C)=O)CO[C@@H]1C[C@@H]2O [Paclitaxel]
[10] = compound: Cc1nc(-c2cn3c(n2)-c2ccc(-c4cnn(C(C)(C)C(N)=O)c4)cc2OCC3)n(C(C)C)n1 [Taselisib/GDC0032]
[11] = compound: CS(=O)(=O)N1CCN(Cc2cc3nc(-c4cccc5[nH]ncc45)nc(N4CCOCC4)c3s2)CC1 [Pictilisib/GDC0941]
[12] = compound: CN(C)C/C=C/C(=O)Nc1ccc(C(=O)N2CCC[C@@H](Nc3ncc(Cl)c(-c4c[nH]c5ccccc45)n3)C2)cc1 [THZ531]
[13] = compound: T1, BSJ-03-123; assay: GR value, 72 h; higher = faster growth (1 = untreated, <0 = killing);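 note: breast cancer and non-malignant breast epithelial lines, nine half-log doses, viable cells counted by Hoechst and LIVE/DEAD dye imaging versus time-zero plates and DMSO controls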
[14] = compound: C=CC(=O)Nc1ccc(C(=O)Nc2[nH]nc3c2CN(C(=O)N[C@H](CN(C)C)c2ccccc2)C3(C)C)cc1 [YKL-5-124]; assay: as above
[15] = compound: T2, Neratinib/HKI272; assay: as above
[16] = compound: CCc1cnn2c(NCc3ccc[n+]([O-])c3)cc(N3CCCC[C@H]3CCO)nc12; assay: as above
[17] = compound: T3, LEE011/Ribociclib; assay: as above
[18] = compound: CCN1CCN(Cc2ccc(Nc3ncc(F)c(-c4cc(F)c5nc(C)n(C(C)C)c5c4)n3)nc2)CC1; assay: as above
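Throughout, for GR50, 72 h: breast cancer and non-malignant breast epithelial cell lines, Deep Dye Drop or Dye Drop imaging, nine half-log doses, GR normalized to time-zero plates and DMSO-only controls.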

## HCC1187
[1]
  GR50, 72 h: 6.39 µM
[2]
  GR50, 72 h: 0.0078 µM
[3]
  GR50, 72 h: 1.49 µM
[4]
  GR50, 72 h: 0.0661 µM
[5]
  GR50, 72 h: 2.5 µM
[6]
  GR50, 72 h: 0.00763 µM
[7]
  GR50, 72 h: > 10 µM
[8]
  GR50, 72 h: 0.0418 µM
[9]
  GR50, 72 h: 0.000215 µM
[10]
  GR50, 72 h: 0.168 µM
[11]
  GR50, 72 h: 0.571 µM
[12]
  GR50, 72 h: 0.0529 µM
[13]; 0.001 µM
  GR value: 0.987 GR
[13]; 0.003162 µM
  GR value: 0.865 GR
[13]; 0.01 µM
  GR value: 0.969 GR
[13]; 0.03162 µM
  GR value: 0.935 GR
[13]; 0.1 µM
  GR value: 0.956 GR
[13]; 0.3162 µM
  GR value: 0.882 GR
[13]; 1 µM
  GR value: 0.743 GR
[13]; 3.162 µM
  GR value: 0.621 GR
[13]; 10 µM
  GR value: -0.43 GR
[14]; 0.001 µM
  GR value: 0.478 GR
[14]; 0.003162 µM
  GR value: 0.459 GR
[14]; 0.01 µM
  GR value: 0.209 GR
[14]; 0.03162 µM
  GR value: 0.309 GR
[14]; 0.1 µM
  GR value: 0.195 GR
[14]; 0.3162 µM
  GR value: 0.222 GR
[14]; 1 µM
  GR value: 0.0281 GR
[14]; 3.162 µM
  GR value: -0.0235 GR
[14]; 10 µM
  GR value: -0.529 GR
[15]; 0.0003162 µM
  GR value: 0.994 GR
[15]; 0.001 µM
  GR value: 0.99 GR
[15]; 0.003162 µM
  GR value: 0.792 GR
[15]; 0.01 µM
  GR value: 1.07 GR
[15]; 0.03162 µM
  GR value: 0.979 GR
[15]; 0.1 µM
  GR value: 0.78 GR
[15]; 0.3162 µM
  GR value: 0.869 GR
[15]; 1 µM
  GR value: 0.653 GR
[15]; 3.162 µM
  GR value: 0.484 GR
[16]; 0.0001 µM
  GR value: 0.988 GR
[16]; 0.0003162 µM
  GR value: 1 GR
[16]; 0.001 µM
  GR value: 1.08 GR
[16]; 0.003162 µM
  GR value: 0.985 GR
[16]; 0.01 µM
  GR value: 0.471 GR
[16]; 0.03162 µM
  GR value: -0.689 GR
[16]; 0.1 µM
  GR value: -0.797 GR
[16]; 0.3162 µM
  GR value: -0.791 GR
[16]; 1 µM
  GR value: -0.761 GR
[17]; 0.001 µM
  GR value: 1.01 GR
[17]; 0.003162 µM
  GR value: 0.914 GR
[17]; 0.01 µM
  GR value: 0.863 GR
[17]; 0.03162 µM
  GR value: 1.02 GR
[17]; 0.1 µM
  GR value: 0.922 GR
[17]; 0.3162 µM
  GR value: 0.984 GR
[17]; 1 µM
  GR value: 0.933 GR
[17]; 3.162 µM
  GR value: 0.963 GR
[17]; 10 µM
  GR value: 0.933 GR
[18]; 0.001 µM
  GR value: 0.974 GR
[18]; 0.003162 µM
  GR value: 0.907 GR
[18]; 0.01 µM
  GR value: 0.898 GR
[18]; 0.03162 µM
  GR value: 0.971 GR
[18]; 0.1 µM
  GR value: 1.01 GR
[18]; 0.3162 µM
  GR value: 1 GR
[18]; 1 µM
  GR value: 0.849 GR
[18]; 3.162 µM
  GR value: 0.69 GR
[18]; 10 µM
  GR value: 0.297 GR
